Results on 31 compounds are retold here after US10550105B2 (Ribon Therapeutics Inc., priority 2018, dated 2020).

The target in the experiment is PARP7 (Homo sapiens (Human), UniProt Q7Z3E1). Briefly: Enzymatic assay for inhibition of PARP7: TR-FRET displacement of biotinylated Probe A from the TIPARP active site. Type of experiment: binding. The following applies: Table A-1. In a few lines:
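TR-FRET, ex 320 nm / em 615 and 665 nm. Signal ratio reflects complex formation.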
For orientation: Time-resolved FRET reads energy transfer from a long-lived donor to a nearby acceptor.

Sequence of PARP7 (Q7Z3E1 whole entry): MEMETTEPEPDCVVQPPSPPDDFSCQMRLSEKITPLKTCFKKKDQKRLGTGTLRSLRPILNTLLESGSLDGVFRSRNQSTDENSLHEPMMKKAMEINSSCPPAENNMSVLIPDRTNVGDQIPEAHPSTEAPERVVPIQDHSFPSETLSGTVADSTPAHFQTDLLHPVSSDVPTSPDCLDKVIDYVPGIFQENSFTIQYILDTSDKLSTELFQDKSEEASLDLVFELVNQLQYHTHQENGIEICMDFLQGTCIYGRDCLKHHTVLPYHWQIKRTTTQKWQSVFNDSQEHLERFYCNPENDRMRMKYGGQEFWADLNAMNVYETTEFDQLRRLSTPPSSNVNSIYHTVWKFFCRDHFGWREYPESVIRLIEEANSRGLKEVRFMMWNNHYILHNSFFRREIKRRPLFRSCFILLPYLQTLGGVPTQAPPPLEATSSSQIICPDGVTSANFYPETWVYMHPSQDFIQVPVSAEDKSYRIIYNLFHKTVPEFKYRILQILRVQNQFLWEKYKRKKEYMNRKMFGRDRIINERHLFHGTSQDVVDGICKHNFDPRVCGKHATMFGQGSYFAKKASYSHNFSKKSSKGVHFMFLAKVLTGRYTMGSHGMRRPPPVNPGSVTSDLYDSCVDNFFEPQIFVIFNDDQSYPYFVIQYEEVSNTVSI

The compound `N#Cc1ccc(N2CCN(C(=O)c3cccc(OCc4cccc5c4CN(c4cn[nH]c(=O)c4C(F)(F)F)C5)c3)CC2)nc1` [Example 488, 6-(4-(3-((2-(6-Oxo-5-(trifluoromethyl)-1,6-dihydropyridazin-4-yl)isoindolin-4-yl)methoxy)benzoyl)piperazin-1-yl)nicotinonitrile] showed an IC50 of less than 0.1 µM. Regarding `CC(=O)N1CCC(COc2cc3c(cc2F)CN(c2cn[nH]c(=O)c2C(C)C)C3)CC1` [Example 489, 5-(5-((1-Acetylpiperidin-4-yl)methoxy)-6-fluoroisoindolin-2-yl)-4-isopropylpyridazin-3(2H)-one], the IC50 is no less than 1 µM.

For `N#Cc1ccc(N2CCN(C(=O)COCCOc3cccc4c3CN(c3cn[nH]c(=O)c3C(F)(F)F)C4)CC2)nc1` [Example 490, 6-(4-(2-(2-((2-(6-Oxo-5-(trifluoromethyl)-1,6-dihydropyridazin-4-yl)isoindolin-4-yl)oxy)ethoxy)acetyl)piperazin-1-yl)nicotinonitrile], the IC50 is less than 0.1 µM. In the case of `N#Cc1ccc(N2CCN(C(=O)CNCCOc3cccc4c3CN(c3cn[nH]c(=O)c3C(F)(F)F)C4)CC2)nc1` [Example 491, 6-(4-((2-((2-(6-Oxo-5-(trifluoromethyl)-1,6-dihydropyridazin-4-yl)isoindolin-4-yl)oxy)ethyl)glycyl)piperazin-1-yl)nicotinonitrile], the IC50 is less than 0.1 µM. Regarding `N#Cc1ccc(N2CCN(C(=O)CCNCCOc3cccc4c3CN(c3cn[nH]c(=O)c3C(F)(F)F)C4)CC2)nc1` [Example 492, 6-(4-(3-((2-((2-(6-Oxo-5-(trifluoromethyl)-1,6-dihydropyridazin-4-yl)isoindolin-4-yl)oxy)ethyl)amino)propanoyl)piperazin-1-yl)nicotinonitrile], the IC50 was less than 0.1 µM. As to `CN(CCOc1cccc2c1CN(c1cn[nH]c(=O)c1C(F)(F)F)C2)CCC(=O)N1CCN(c2ccc(C#N)cn2)CC1` [Example 493, 6-(4-(3-(Methyl(2-((2-(6-oxo-5-(trifluoromethyl)-1,6-dihydropyridazin-4-yl)isoindolin-4-yl)oxy)ethyl)amino)propanoyl)piperazin-1-yl)nicotinonitrile], the IC50 is less than 0.1 µM. Compound `N#Cc1ccc(N2CCN(C(=O)c3ccc(Oc4cccc5c4CN(c4cn[nH]c(=O)c4C(F)(F)F)C5)cc3)CC2)nc1` [Example 494, 6-(4-(4-((2-(6-Oxo-5-(trifluoromethyl)-1,6-dihydropyridazin-4-yl)isoindolin-4-yl)oxy)benzoyl)pipoerazin-1-yl)nicotinonitrile] returned an IC50 of less than 0.1 µM.

As for `N#Cc1ccc(N2CCN(C(=O)CCOCc3cccc4c3CN(c3cn[nH]c(=O)c3C(F)(F)F)C4)CC2)nc1` [Example 495, 6-(4-(3-((2-(6-Oxo-5-(trifluoromethyl)-1,6-dihydropyridazin-4-yl)isoindolin-4-yl)methoxy)propanoyl)piperazin-1-yl)nicotinonitrile], the IC50 is less than 0.1 µM. Under `N#Cc1ccc(N2CCN(C(=O)CCCOCc3cccc4c3CN(c3cn[nH]c(=O)c3C(F)(F)F)C4)CC2)nc1` [Example 496, 6-(4-(4-((2-(6-Oxo-5-(trifluoromethyl)-1,6-dihydropyridazin-4-yl)isoindolin-4-yl)methoxy)butanoyl)piperazin-1-yl)nicotinonitrile] stands less than 0.1 µM; under `O=c1[nH]ncc(N2C[C@H]3CCCN[C@H]3C2)c1C(F)(F)F` [Example 497, 5-((4aR,7aR)-Octahydro-6H-pyrrolo[3,4-b]pyridin-6-yl)-4-(trifluoromethyl)pyridazin-3(2H)-one], no less than 1 µM; under `O=c1[nH]ncc(N2C[C@@H]3CCCN[C@@H]3C2)c1C(F)(F)F` [Example 498, 5-((4aS,7aS)-Octahydro-6H-pyrrolo[3,4-b]pyridin-6-yl)-4-(trifluoromethyl)pyridazin-3(2H)-one], no less than 1 µM. As to `N#Cc1ccc(N2CCN(C(=O)COCCNc3cn[nH]c(=O)c3C(F)(F)F)CC2)nc1` [Example 499, 6-[4-[2-(2-[[6-Oxo-5-(trifluoromethyl)-1,6-dihydropyridazin-4-yl]amino]ethoxy)acetyl]piperazin-1-yl]pyridine-3-carbonitrile], the IC50 is less than 0.1 µM.

For `N#Cc1ccc(N2CCN(C(=O)CCOCCNc3cn[nH]c(=O)c3C(F)(F)F)CC2)nc1` [Example 500, 6-[4-[3-(2-[[6-Oxo-5-(trifluoromethyl)-1,6-dihydropyridazin-4-yl]amino]ethoxy)propanoyl]piperazin-1-yl]pyridine-3-carbonitrile], the IC50 is less than 0.1 µM.

Turning to `N#Cc1ccc(N2CCN(C(=O)CCOCCOc3cn[nH]c(=O)c3C(F)(F)F)CC2)nc1` [Example 501, 6-[4-[3-(2-[[6-Oxo-5-(trifluoromethyl)-1,6-dihydropyridazin-4-yl]oxy]ethoxy)propanoyl]piperazin-1-yl]pyridine-3-carbonitrile], the IC50 was less than 0.1 µM. The value for `N#Cc1ccc(N2CCN(C(=O)CCNCCOc3cn[nH]c(=O)c3C(F)(F)F)CC2)nc1` [Example 502] was no less than 1 µM.

`O=C(CCOCCNc1cn[nH]c(=O)c1C(F)(F)F)N1CCN(c2ncc(Cl)cn2)CC1` [Example 503, 5-[(2-[3-[4-(5-Chloropyrimidin-2-yl)piperazin-1-yl]-3-oxopropoxy]ethyl)amino]-4-(trifluoromethyl)-2,3-dihydropyridazin-3-one] returned an IC50 of less than 0.1 µM. Turning to `O=C(CCOCCNc1cn[nH]c(=O)c1C(F)(F)F)N1CCN(c2ccc(C(F)(F)F)cn2)CC1` [Example 504, 5-[[2-(3-Oxo-3-[4-[5-(Trifluoromethyl)pyridin-2-yl]piperazin-1-yl]propoxy)ethyl]amino]-4-(trifluoromethyl)-2,3-dihydropyridazin-3-one], the IC50 is less than 0.1 µM. For `O=C(CCOCCNc1cn[nH]c(=O)c1C(F)(F)F)N1CCN(c2ncc(C(F)(F)F)cn2)CC1` [Example 505, 5-[[2-(3-Oxo-3-[4-[5-(Trifluoromethyl)pyrimidin-2-yl]piperazin-1-yl]propoxy)ethyl]amino]-4-(trifluoromethyl)-2,3-dihydropyridazin-3-one], the IC50 is less than 0.1 µM. Compound `N#Cc1ccc(N2CCN(C(=O)CCOCCNc3cn[nH]c(=O)c3Cl)CC2)nc1` [Example 507] returned an IC50 of less than 0.1 µM.

`O=C(CCOCCNc1cn[nH]c(=O)c1Cl)N1CCN(c2ncc(C(F)(F)F)cn2)CC1` [Example 508, 4-Chloro-5-[[2-(3-oxo-3-[4-[5-(trifluoromethyl)pyrimidin-2-yl]piperazin-1-yl]propoxy)ethyl]amino]-2,3-dihydropyridazin-3-one] yielded an IC50 of less than 0.1 µM. In the case of `O=C(CCOCCNc1cn[nH]c(=O)c1Cl)N1CCN(c2ccc(C(F)(F)F)cn2)CC1` [Example 509, 4-Chloro-5-[[2-(3-oxo-3-[4-[5-(trifluoromethyl)pyridin-2-yl]piperazin-1-yl]propoxy)ethyl]amino]-2,3-dihydropyridazin-3-one], the IC50 is less than 0.1 µM. `CN(CCOCCC(=O)N1CCN(c2ccc(C#N)cn2)CC1)c1cn[nH]c(=O)c1C(F)(F)F` [Example 510, 6-[4-[3-(2-[Methyl[6-oxo-5-(trifluoromethyl)-1,6-dihydropyridazin-4-yl]amino]ethoxy)propanoyl]piperazin-1-yl]pyridine-3-carbonitrile] yielded an IC50 of less than 0.1 µM.

Compound `N#Cc1ccc(N2CCN(C(=O)CCCCCNc3cn[nH]c(=O)c3C(F)(F)F)CC2)nc1` [Example 511, 6-[4-(6-[[6-Oxo-5-(trifluoromethyl)-1,6-dihydropyridazin-4-yl]amino]hexanoyl)piperazin-1-yl]pyridine-3-carbonitrile] gave an IC50 of less than 0.1 µM. The compound `N#Cc1ccc(N2CCN(C(=O)CCCCCOc3cn[nH]c(=O)c3C(F)(F)F)CC2)nc1` [Example 512, 6-[4-(6-[[6-Oxo-5-(trifluoromethyl)-1,6-dihydropyridazin-4-yl]oxy]hexanoyl)piperazin-1-yl]pyridine-3-carbonitrile] displayed an IC50 of less than 0.1 µM. Under `C[C@@H](COCCC(=O)N1CCN(c2ccc(C#N)cn2)CC1)Nc1cn[nH]c(=O)c1C(F)(F)F` [Example 513A, (S)-6-(4-(3-(2-(6-Oxo-5-(trifluoromethyl)-1,6-dihydropyridazin-4-ylamino)propoxy)propanoyl)piperazin-1-yl)nicotinonitrile] stands less than 0.1 µM. Compound `C[C@H](COCCC(=O)N1CCN(c2ccc(C#N)cn2)CC1)Nc1cn[nH]c(=O)c1C(F)(F)F` [Example 513B, (R)-6-(4-(3-(2-(6-Oxo-5-(trifluoromethyl)-1,6-dihydropyridazin-4-ylamino)propoxy)propanoyl)piperazin-1-yl)nicotinonitrile] gave an IC50 of 0.1 to 1 µM. `N#Cc1ccc(N2CCN(C(=O)CCOC[C@H](Nc3cn[nH]c(=O)c3C(F)(F)F)c3ccccc3)CC2)nc1` [Example 514A, 6-(4-[3-[(2R)-2-[[6-Oxo-5-(trifluoromethyl)-1,6-dihydropyridazin-4-yl]amino]-2-phenylethoxy]propanoyl]piperazin-1-yl)pyridine-3-carbonitrile] had an IC50 of no less than 1 µM.

Take `N#Cc1ccc(N2CCN(C(=O)CCOC[C@@H](Nc3cn[nH]c(=O)c3C(F)(F)F)c3ccccc3)CC2)nc1` [Example 514B, 6-(4-[3-[(2S)-2-[[6-Oxo-5-(trifluoromethyl)-1,6-dihydropyridazin-4-yl]amino]-2-phenylethoxy]propanoyl]piperazin-1-yl)pyridine-3-carbonitrile]: the IC50 is less than 0.1 µM. Under `N#Cc1ccc(N2CCN(C(=O)CCOC[C@H](Cc3ccccc3)Nc3cn[nH]c(=O)c3C(F)(F)F)CC2)nc1` [Example 515B] stands less than 0.1 µM.

`CN(CCOc1cn[nH]c(=O)c1C(F)(F)F)CCC(=O)N1CCN(c2ccc(C#N)cn2)CC1` [Example 516] returned an IC50 of less than 0.1 µM. Under `N#Cc1ccc(N2CCN(C(=O)COCCCOc3cn[nH]c(=O)c3C(F)(F)F)CC2)nc1` [Example 517, 6-(4-(2-(3-(6-Oxo-5-(trifluoromethyl)-1,6-dihydropyridazin-4-yloxy)propoxy)acetyl)piperazin-1-yl)nicotinonitrile] stands less than 0.1 µM.

Broadly, the IC50 is the point on the concentration scale where inhibition reaches its midpoint.
